Assay results from patent US20230092890A1, “1, 3, 4-Oxadiazole derivative compounds as histone deacetylase 6 inhibitor, and the pharmaceutical composition comprising the same” (Chong Kun Dang Pharmaceutical Corp., priority 2019, published 2023).

What was measured:
HDAC6 human recombinant = molecular target: T1, HDAC6 human recombinant (Homo sapiens, UniProt Q9UBN7); test: HDAC enzyme activity inhibition (in vitro), HDAC6 assay; format: biochemical; details: samples at 0.1, 1, 10, 100 and 1000 nM; 37° C. 60 minutes; fluorescence Ex 390, Em 460; read-out: HDAC6 IC50
T1 construct: purchased Calbiochem 382180
T1 sequence (Q9UBN7 1-1215): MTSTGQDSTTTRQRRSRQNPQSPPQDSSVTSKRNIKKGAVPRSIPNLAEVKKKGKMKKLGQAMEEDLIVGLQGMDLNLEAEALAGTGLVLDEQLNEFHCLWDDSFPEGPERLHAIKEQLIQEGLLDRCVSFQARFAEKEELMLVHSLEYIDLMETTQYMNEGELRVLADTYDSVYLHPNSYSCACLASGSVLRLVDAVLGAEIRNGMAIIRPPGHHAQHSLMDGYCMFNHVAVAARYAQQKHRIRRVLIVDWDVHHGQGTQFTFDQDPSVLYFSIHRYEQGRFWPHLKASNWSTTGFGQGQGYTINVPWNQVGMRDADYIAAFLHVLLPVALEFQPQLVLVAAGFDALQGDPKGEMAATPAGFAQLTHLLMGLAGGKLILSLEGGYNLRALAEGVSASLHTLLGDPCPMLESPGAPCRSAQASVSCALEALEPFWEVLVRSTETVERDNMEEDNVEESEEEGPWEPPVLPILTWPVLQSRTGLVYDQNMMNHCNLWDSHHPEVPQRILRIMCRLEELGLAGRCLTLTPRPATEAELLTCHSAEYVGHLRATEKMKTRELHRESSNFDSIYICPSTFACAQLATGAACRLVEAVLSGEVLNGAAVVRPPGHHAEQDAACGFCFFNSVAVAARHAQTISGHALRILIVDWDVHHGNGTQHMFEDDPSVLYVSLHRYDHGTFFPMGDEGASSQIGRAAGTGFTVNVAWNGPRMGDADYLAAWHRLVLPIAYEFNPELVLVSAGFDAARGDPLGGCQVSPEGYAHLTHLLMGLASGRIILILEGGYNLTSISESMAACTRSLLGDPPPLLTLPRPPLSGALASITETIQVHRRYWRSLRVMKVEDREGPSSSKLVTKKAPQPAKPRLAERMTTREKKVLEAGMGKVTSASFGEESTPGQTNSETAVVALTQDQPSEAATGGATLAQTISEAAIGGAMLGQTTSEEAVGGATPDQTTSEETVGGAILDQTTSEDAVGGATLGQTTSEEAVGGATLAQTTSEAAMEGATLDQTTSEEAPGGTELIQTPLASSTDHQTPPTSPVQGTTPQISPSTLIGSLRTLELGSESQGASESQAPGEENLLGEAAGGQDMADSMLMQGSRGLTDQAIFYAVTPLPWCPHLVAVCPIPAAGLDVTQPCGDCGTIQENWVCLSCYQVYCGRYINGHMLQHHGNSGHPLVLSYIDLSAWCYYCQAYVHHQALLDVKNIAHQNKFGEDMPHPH
Outline: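 Fluorescence (Ex 390, Em 460) read after a 37° C, 60 min enzyme reaction and a further 30 min developer step at 37° C. Uses recombinant human HDAC6; HDAC1 arm dosed at 100, 1000, 10000 nM.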

HDAC1 = molecular target: T2, HDAC1 (Homo sapiens, UniProt Q13547); test: HDAC enzyme activity inhibition (in vitro), HDAC1 Fluorimetric Drug Discovery Assay Kit; format: biochemical; details: samples at 100, 1000 and 10000 nM; 37° C. 60 minutes; fluorescence Ex 390, Em 460; read-out: HDAC1 IC50
T2 construct: purchased Enzolifesciences BML-AK511
Outline: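 Fluorimetric read-out (Ex 390, Em 460) after a 60 min 37° C enzyme reaction and 30 min 37° C developer step. Tested levels: 0.1-1000 nM (0.1, 1, 10, 100, 1000) on recombinant human HDAC6; 100, 1000 and 10000 nM on HDAC1 kit enzyme.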

T2 sequence (Q13547 whole entry): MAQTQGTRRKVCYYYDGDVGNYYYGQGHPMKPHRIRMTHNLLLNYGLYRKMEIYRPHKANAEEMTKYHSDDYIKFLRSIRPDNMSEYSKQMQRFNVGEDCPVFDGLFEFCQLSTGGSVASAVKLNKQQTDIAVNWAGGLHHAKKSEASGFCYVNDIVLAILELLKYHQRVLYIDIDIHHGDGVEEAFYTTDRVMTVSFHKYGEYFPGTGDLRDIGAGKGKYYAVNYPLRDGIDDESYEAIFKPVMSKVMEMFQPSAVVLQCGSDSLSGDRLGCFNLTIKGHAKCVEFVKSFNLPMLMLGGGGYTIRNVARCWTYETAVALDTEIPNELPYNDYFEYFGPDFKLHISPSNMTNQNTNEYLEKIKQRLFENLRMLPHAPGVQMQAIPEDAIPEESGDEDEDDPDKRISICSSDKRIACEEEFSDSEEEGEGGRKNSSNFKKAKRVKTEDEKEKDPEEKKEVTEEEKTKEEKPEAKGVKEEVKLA

How did the IC50 (HDAC6 human recombinant) turn out when CN1CCC(n2c(=O)n(Cc3ccc(-c4nnc(C(F)F)o4)cn3)c3cc(-c4cccnc4)ccc32)CC1 [Compound 145, 3-((5-(5-(difluoromethyl)-1,3,4-oxadiazole-2-yl)pyridine-2-yl)methyl)-1-(1-methylpiperidine-4-yl)-5-(pyridine-3-yl)-1,3-dihydro-2H-benzo[d]imidazole-2-one] was run?
Its IC50 is 315 nM.

What about the IC50 (HDAC1) of the same compound?
The IC50 was over 10000 nM.

How did the IC50 (HDAC6 human recombinant) turn out when Cc1ccc(-c2ccc3c(c2)n(Cc2ccc(-c4nnc(C(F)F)o4)cn2)c(=O)n3C2CCN(C)CC2)o1 [Compound 146, 3-((5-(5-(difluoromethyl)-1,3,4-oxadiazole-2-yl)pyridine-2-yl)methyl)-5-(5-methylfuran-2-yl)-1-(1-methylpiperidine-4-yl)-1,3-dihydro-2H-benzo[d]imidazole-2-one] was run?
Its IC50 is 130 nM.

And the IC50 (HDAC1)?
The IC50 was over 10000 nM.

Which IC50 (HDAC6 human recombinant) does the source give for Cn1c(=O)n(Cc2ccc(-c3nnc(C(F)F)o3)cn2)c2cc(F)c(Br)cc21 [Compound 147, 5-bromo-1-((5-(5-(difluoromethyl)-1,3,4-oxadiazole-2-yl)pyridine-2-yl)methyl)-6-fluoro-3-methyl-1,3-dihydro-2H-benzo[d]imidazole-2-one] here?
Its IC50 is 15 nM.

What about the IC50 (HDAC1) of the same compound?
The IC50 was over 10000 nM.

For Cn1c(=O)n(Cc2ccc(-c3nnc(C(F)F)o3)cc2F)c2cc(F)c(Br)cc21 [Compound 148, 5-bromo-1-(4-(5-(difluoromethyl)-1,3,4-oxadiazole-2-yl)-2-fluorobenzyl)-6-fluoro-3-methyl-1,3-dihydro-2H-benzo[d]imidazole-2-one], which IC50 (HDAC6 human recombinant) is on record?
Its IC50 is 61 nM.

What about the IC50 (HDAC1) of the same compound?
The IC50 was over 10000 nM.

What does the source list for CN1CCC(n2c(=O)n(Cc3ccc(-c4nnc(C(F)F)o4)cn3)c3cc(F)c(Br)cc32)CC1 [Compound 149, 5-bromo-1-((5-(5-(difluoromethyl)-1,3,4-oxadiazole-2-yl)pyridine-2-yl)methyl)-6-fluoro-3-(1-methylpiperidine-4-yl)-1,3-dihydro-2H-benzo[d]imidazole-2-one]?
IC50 (HDAC6 human recombinant): 40 nM; IC50 (HDAC1): > 10000 nM

For CN1CCC(n2c(=O)n(Cc3ccc(-c4nnc(C(F)F)o4)cn3)c3cc(F)c(-c4ccoc4)cc32)CC1 [Compound 150, 1-((5-(5-(difluoromethyl)-1,3,4-oxadiazole-2-yl)pyridine-2-yl)methyl)-6-fluoro-5-(furan-3-yl)-3-(1-methylpiperidine-4-yl)-1,3-dihydro-2H-benzo[d]imidazole-2-one], which IC50 (HDAC6 human recombinant) is on record?
Its IC50 is 43 nM.

And the IC50 (HDAC1)?
Its IC50 is over 10000 nM.

For CN1CCC(n2c(=O)n(Cc3ccc(-c4nnc(C(F)F)o4)cn3)c3cc(F)c(-c4ccco4)cc32)CC1 [Compound 151, 1-((5-(5-(difluoromethyl)-1,3,4-oxadiazole-2-yl)pyridine-2-yl)methyl)-6-fluoro-5-(furan-2-yl)-3-(1-methylpiperidine-4-yl)-1,3-dihydro-2H-benzo[d]imidazole-2-one], which IC50 (HDAC6 human recombinant) is on record?
Its IC50 is 55 nM.

What about the IC50 (HDAC1) of the same compound?
Its IC50 is over 10000 nM.

CN1CCC(n2c(=O)n(Cc3ccc(-c4nnc(C(F)F)o4)cn3)c3cc(F)c(-c4ccccc4F)cc32)CC1 [Compound 152, 1-((5-(5-(difluoromethyl)-1,3,4-oxadiazole-2-yl)pyridine-2-yl)methyl)-6-fluoro-5-(2-fluorophenyl)-3-(1-methylpiperidine-4-yl)-1,3-dihydro-2H-benzo[d]imidazole-2-one] was tested. Which IC50 (HDAC6 human recombinant) did it give?
Its IC50 is 34 nM.

What about the IC50 (HDAC1) of the same compound?
Its IC50 is over 10000 nM.

Which IC50 (HDAC6 human recombinant) does the source give for CN1CCC(n2c(=O)n(Cc3ccc(-c4nnc(C(F)F)o4)cn3)c3cc(F)c(-c4ccncc4)cc32)CC1 [Compound 153, 1-((5-(5-(difluoromethyl)-1,3,4-oxadiazole-2-yl)pyridine-2-yl)methyl)-6-fluoro-3-(1-methylpiperidine-4-yl)-5-(pyridine-4-yl)-1,3-dihydro-2H-benzo[d]imidazole-2-one] here?
Its IC50 is 16 nM.

What about the IC50 (HDAC1) of the same compound?
The IC50 was over 10000 nM.

What does the source list for CN1CCC(n2c(=O)n(Cc3ccc(-c4nnc(C(F)F)o4)cn3)c3cc(F)c(-c4cccc(F)c4)cc32)CC1 [Compound 154, 1-((5-(5-(difluoromethyl)-1,3,4-oxadiazole-2-yl)pyridine-2-yl)methyl)-6-fluoro-5-(3-fluorophenyl)-3-(1-methylpiperidine-4-yl)-1,3-dihydro-2H-benzo[d]imidazole-2-one]?
IC50 (HDAC6 human recombinant): 42 nM; IC50 (HDAC1): > 10000 nM

Which results are given for CN1CCC(n2c(=O)n(Cc3ccc(-c4nnc(C(F)F)o4)cn3)c3cc(F)c(-c4cccnc4)cc32)CC1 [Compound 155, 1-((5-(5-(difluoromethyl)-1,3,4-oxadiazole-2-yl)pyridine-2-yl)methyl)-6-fluoro-3-(1-methylpiperidine-4-yl)-5-(pyridine-3-yl)-1,3-dihydro-2H-benzo[d]imidazole-2-one]?
IC50 (HDAC6 human recombinant): 20 nM; IC50 (HDAC1): > 10000 nM

CN1CCC(c2ccc3c(c2)n(C2CCN(C)CC2)c(=O)n3Cc2ccc(-c3nnc(C(F)F)o3)cc2F)CC1 [Compound 156, 1-(4-(5-(difluoromethyl)-1,3,4-oxadiazole-2-yl)-2-fluorobenzyl)-3,5-bis(1-methylpiperidine-4-yl)-1,3-dihydro-2H-benzo[d]imidazole-2-one] was tested. Which IC50 (HDAC6 human recombinant) did it give?
The IC50 was 102 nM.

What about the IC50 (HDAC1) of the same compound?
The IC50 was over 10000 nM.

With CC(=O)N1CCC(c2ccc3c(c2)n(C2CCN(C)CC2)c(=O)n3Cc2ccc(-c3nnc(C(F)F)o3)cc2F)CC1 [Compound 157, 5-(1-acetylpiperidine-4-yl)-1-(4-(5-(difluoromethyl)-1,3,4-oxadiazole-2-yl)-2-fluorobenzyl)-3-(1-methylpiperidine-4-yl)-1,3-dihydro-2H-benzo[d]imidazole-2-one] as the compound, how does the IC50 (HDAC6 human recombinant) read?
Its IC50 is 159 nM.

And the IC50 (HDAC1)?
The IC50 was over 10000 nM.

For CN1CCC(n2c(=O)n(Cc3ccc(-c4nnc(C(F)F)o4)cc3F)c3ccc(C4CCN(S(C)(=O)=O)CC4)cc32)CC1 [Compound 158, 1-(4-(5-(difluoromethyl)-1,3,4-oxadiazole-2-yl)-2-fluorobenzyl)-3-(1-methylpiperidine-4-yl)-5-(1-(methylsulfonyl)piperidine-4-yl)-1,3-dihydro-2H-benzo[d]imidazole-2-one], which IC50 (HDAC6 human recombinant) is on record?
Its IC50 is 138 nM.

What about the IC50 (HDAC1) of the same compound?
Its IC50 is over 10000 nM.

With CN1CCC(n2c(=O)n(Cc3ccc(-c4nnc(C(F)F)o4)cc3F)c3ccc(-c4cccc(F)c4)cc32)CC1 [Compound 159, 1-(4-(5-(difluoromethyl)-1,3,4-oxadiazole-2-yl)-2-fluorobenzyl)-5-(3-fluorophenyl)-3-(1-methylpiperidine-4-yl)-1,3-dihydro-2H-benzo[d]imidazole-2-one] as the compound, how does the IC50 (HDAC6 human recombinant) read?
The IC50 was 71 nM.

And the IC50 (HDAC1)?
The IC50 was over 10000 nM.

For CN1CCC(n2c(=O)n(Cc3ccc(-c4nnc(C(F)F)o4)cc3F)c3ccc(-c4ccccc4F)cc32)CC1 [Compound 160, 1-(4-(5-(difluoromethyl)-1,3,4-oxadiazole-2-yl)-2-fluorobenzyl)-5-(2-fluorophenyl)-3-(1-methylpiperidine-4-yl)-1,3-dihydro-2H-benzo[d]imidazole-2-one], which IC50 (HDAC6 human recombinant) is on record?
The IC50 was 92 nM.

What about the IC50 (HDAC1) of the same compound?
The IC50 was over 10000 nM.

What does the source list for CN1CCC(n2c(=O)n(Cc3ccc(-c4nnc(C(F)F)o4)cc3F)c3ccc(-c4ccncc4)cc32)CC1 [Compound 161, 1-(4-(5-(difluoromethyl)-1,3,4-oxadiazole-2-yl)-2-fluorobenzyl)-3-(1-methylpiperidine-4-yl)-5-(pyridine-4-yl)-1,3-dihydro-2H-benzo[d]imidazole-2-one]?
IC50 (HDAC6 human recombinant): 40 nM; IC50 (HDAC1): > 10000 nM

How did the IC50 (HDAC6 human recombinant) turn out when CN1CCC(n2c(=O)n(Cc3ccc(-c4nnc(C(F)F)o4)cc3F)c3ccc(-c4ccoc4)cc32)CC1 [Compound 162, 1-(4-(5-(difluoromethyl)-1,3,4-oxadiazole-2-yl)-2-fluorobenzyl)-5-(furan-3-yl)-3-(1-methylpiperidine-4-yl)-1,3-dihydro-2H-benzo[d]imidazole-2-one] was run?
Its IC50 is 39 nM.

And the IC50 (HDAC1)?
Its IC50 is over 10000 nM.
